Literature values as cited in US20090291104A1 (Florida Atlantic University, priority 2005, published 2009).

Test system: K+ channels
Conditions: cited from earlier work

Which “rank as K+ channel blocker within the Om-toxin set” value does the source give for “N--DPCYEVCLQHTGNV-KACEEACQ (NDPCYEVCLQHTGNVKACEEACQ; Opisthacanthus madagascarienses) [OmTx3]” here?
The value was “best blocker of the Om-toxin set”.
